Data on 29 compounds can be found in patent publication US20070238765A1, “Heterocyclic GABAA subtype selective receptor modulators” (Roche Palo Alto LLC, priority 2006, published 2007).

Molecules are shown by their SMILES. Where a name gives a salt, the structure may show the parent alone.

One series deals with T1, GABAA α2β3γ2 (Homo sapiens, UniProt P18507+P28472+P47869).
T1 construct: expressed in transfected cells; host or cells: HEK293
Nature of the series: 35S-TBPS binding assay, HEK293 membranes with GABAA α2β3γ2 construct. The settings on record: 35S-TBPS 5 nM, GABA 1 μM, 2 hours at room temperature, read-out: α2β3γ2 (35S-TBPS binding, pIC50) (converted). How it is done:
(§1) The binding assay is based on the assay reported by K. Gee et al., Eur. J. Pharmacol. 1987, 136, 419-423.
(§2) Homogenate preparation: Membrane preparations of HEK293 cells containing either GABAA α1β2γ2 or GABAA α2β3γ2 constructs were performed according to a modified procedure previously described by Gee et al. (supra). Whole HEK 293 cells in D-PBS (calcium/magnesium free) buffer adjusted to pH 7.4 were centrifuged at 7,280×g for 20 m. After discarding the supernatant, the pellet was resuspended in the buffer and centrifuged at 1,820×g for 10 m. Afterwards, the supernatant was discarded and the pellet resuspended in ice-cold preparation buffer (50 mM Tris HCl pH 7.4, 4° C. and 150 mM KCl), homogenized for 30 sec using a Brinkmann Polytron PT3000 (setting 6) and centrifuged at 48,000×g for 30 m at 4° C. The centrifugation and homogenization procedure was repeated two more times for a total of 3 times before resuspending the membranes at a final protein concentration of 0.5 mg/mL. Aliquots (30 mL) of the final membrane preparation were then centrifuged at 48,000×g for 30 m, and the resulting pellets were stored at −80° C. until required.
(§3) 35S-TBPS binding assay. Membrane pellets containing either GABAA α1β2γ2 or GABAA α2β3γ2 constructs were thawed on ice, resuspended in 10 mL of 50 mM Tris HCl pH7.4, 4° C. and 150 mM KCl and centrifuged at 48,000×g, 30 m at 4° C. After discarding the supernatant, the pellet was resuspended in 30 mL incubation buffer (50 mM Tris HCl pH 7.4, 25° C. and 150 mM KCl) at approximately 0.5 mg/mL protein concentration. In 35S-TBPS competition studies, HEK293 membranes were incubated with 35S-TBPS (5 nM final) and GABA (1 μM) in the absence or presence of competitor at concentrations ranging from 0.01 nM to 10 μM in 125 μL incubation buffer for 2 hours at room temperature (˜22° C.). Non-specific binding was assayed with picrotoxin (100 μM final concentration). The binding reaction was terminated by vacuum filtration through GF/B filters previously soaked in 0.1% polyethylenimine followed by 3×1 mL washes with ice cold wash buffer (50 mM Tris HCl pH7.4, 4° C. and 150 mM KCl). Measurement of bound radioactivity was performed using a Packard Microplate 96 well topcount scintillation counter. Analysis of competition curves and estimation of pIC50 values of test compounds were performed using the software programs ActivityBase and/or Prism (version 3.0).

The target of a further series is T2, GABAA α1β2γ2 (Homo sapiens, UniProt P14867+P18507+P47870).
T2 construct: expressed in transfected cells; host or cells: HEK293
T2 sequence (P14867 28-456): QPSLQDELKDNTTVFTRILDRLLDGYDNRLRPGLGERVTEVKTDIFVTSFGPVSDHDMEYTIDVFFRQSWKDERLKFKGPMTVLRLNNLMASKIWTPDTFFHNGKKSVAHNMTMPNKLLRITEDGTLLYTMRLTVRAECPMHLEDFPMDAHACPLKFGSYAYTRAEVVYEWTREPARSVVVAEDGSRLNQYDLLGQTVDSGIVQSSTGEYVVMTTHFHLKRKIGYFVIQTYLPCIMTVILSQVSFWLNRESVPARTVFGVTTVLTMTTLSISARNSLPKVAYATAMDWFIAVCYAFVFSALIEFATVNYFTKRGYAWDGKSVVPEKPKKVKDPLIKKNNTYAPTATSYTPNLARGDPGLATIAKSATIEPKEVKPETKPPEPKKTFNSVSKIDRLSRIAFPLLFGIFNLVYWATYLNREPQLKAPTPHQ
T2 sequence (P47870 25-512 limits assumed): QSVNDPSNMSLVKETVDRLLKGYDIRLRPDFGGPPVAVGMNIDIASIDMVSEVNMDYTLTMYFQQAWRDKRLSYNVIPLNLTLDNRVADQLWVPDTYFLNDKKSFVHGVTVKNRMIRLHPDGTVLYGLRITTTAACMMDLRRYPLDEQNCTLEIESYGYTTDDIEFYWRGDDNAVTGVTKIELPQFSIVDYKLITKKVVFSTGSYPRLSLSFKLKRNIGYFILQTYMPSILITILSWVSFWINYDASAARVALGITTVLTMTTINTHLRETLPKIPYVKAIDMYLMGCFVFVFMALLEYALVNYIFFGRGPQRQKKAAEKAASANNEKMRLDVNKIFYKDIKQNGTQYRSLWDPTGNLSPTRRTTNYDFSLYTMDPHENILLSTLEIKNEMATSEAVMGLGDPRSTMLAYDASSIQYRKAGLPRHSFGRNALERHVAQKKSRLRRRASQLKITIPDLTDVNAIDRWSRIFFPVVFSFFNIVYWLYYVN
T2 sequence (P18507 40-475): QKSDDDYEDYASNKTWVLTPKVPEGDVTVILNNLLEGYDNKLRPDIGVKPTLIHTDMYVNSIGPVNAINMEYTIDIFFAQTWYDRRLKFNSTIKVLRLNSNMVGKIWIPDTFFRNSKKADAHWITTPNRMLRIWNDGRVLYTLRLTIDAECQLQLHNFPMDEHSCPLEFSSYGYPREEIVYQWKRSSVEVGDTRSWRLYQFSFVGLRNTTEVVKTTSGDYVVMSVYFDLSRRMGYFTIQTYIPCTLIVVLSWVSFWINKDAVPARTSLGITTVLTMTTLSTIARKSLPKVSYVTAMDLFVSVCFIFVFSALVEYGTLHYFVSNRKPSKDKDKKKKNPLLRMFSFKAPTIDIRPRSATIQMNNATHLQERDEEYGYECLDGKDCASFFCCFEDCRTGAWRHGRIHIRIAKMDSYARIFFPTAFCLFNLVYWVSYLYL
Description: 35S-TBPS binding assay, HEK293 membranes with GABAA α1β2γ2 construct. The conditions noted are these: 35S-TBPS 5 nM, GABA 1 μM, 2 hours at room temperature, read-out: α1β2γ2 (35S-TBPS binding, pIC50) (converted). How it is done:
as §1, §2, §3

T1 sequence (P47869 29-451): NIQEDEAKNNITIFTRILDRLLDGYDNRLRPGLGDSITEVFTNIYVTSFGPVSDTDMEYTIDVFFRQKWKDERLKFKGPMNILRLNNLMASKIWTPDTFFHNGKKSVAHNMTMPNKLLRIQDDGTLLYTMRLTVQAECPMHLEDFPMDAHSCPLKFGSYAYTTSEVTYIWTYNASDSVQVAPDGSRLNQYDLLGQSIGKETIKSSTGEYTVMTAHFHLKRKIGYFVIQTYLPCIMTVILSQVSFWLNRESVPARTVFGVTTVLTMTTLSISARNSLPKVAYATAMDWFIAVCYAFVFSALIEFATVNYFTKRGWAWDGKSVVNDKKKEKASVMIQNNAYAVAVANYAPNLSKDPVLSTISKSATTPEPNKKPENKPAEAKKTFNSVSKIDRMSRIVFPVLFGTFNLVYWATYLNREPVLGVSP
T1 sequence (P28472 26-473): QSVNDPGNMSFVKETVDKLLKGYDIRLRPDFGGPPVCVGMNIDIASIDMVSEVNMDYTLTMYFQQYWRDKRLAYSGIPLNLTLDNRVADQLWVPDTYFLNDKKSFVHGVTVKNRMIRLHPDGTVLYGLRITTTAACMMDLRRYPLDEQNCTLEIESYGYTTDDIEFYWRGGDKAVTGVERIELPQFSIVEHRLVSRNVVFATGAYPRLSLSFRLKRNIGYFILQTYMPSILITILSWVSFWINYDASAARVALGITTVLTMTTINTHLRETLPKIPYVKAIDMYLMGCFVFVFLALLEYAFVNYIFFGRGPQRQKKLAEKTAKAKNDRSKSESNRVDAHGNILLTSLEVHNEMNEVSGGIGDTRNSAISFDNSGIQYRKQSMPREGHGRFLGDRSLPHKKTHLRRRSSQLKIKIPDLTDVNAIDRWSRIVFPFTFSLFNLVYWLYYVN
T1 sequence (P18507 40-475): as the sequence (P18507 40-475) above

With `CCOC(=O)Cc1nnnn1Cc1c2cccc(-c3ccc(Cl)cc3Cl)c2nn1C` [I-7, {1-[7-(2,4-Dichloro-phenyl)-2-meth-yl-2H-indazol-3-yl-methyl]-1H-tetrazol-5-yl}-aceticacid ethyl ester], the results for the IC50 on GABAA α2β3γ2 and at GABAA α1β2γ2 were 2690 nM and greater than 10000 nM, respectively. The like results for `Cn1nc2c(-c3ccc(Cl)cc3Cl)cccc2c1Cc1nnnn1CS(C)(=O)=O` [I-9, 7-(2,4-Dichloro-phenyl)-3-(1-meth-anesulfonylmethyl-1H-tetra-zol-5-ylmethyl)-2-meth-yl-2H-indazole] were, in that order, greater than 10000 nM and greater than 10000 nM. Consider `COC(=O)c1cncn1Cc1c2cccc(-c3ccc(Cl)cc3Cl)c2nn1C` [I-13, 3-[7-(2,4-Dichloro-phenyl)-2-meth-yl-2H-indazol-3-yl-methyl]-3H-imidazole-4-carboxy-lic acid methyl ester], for which the IC50 at GABAA α2β3γ2 was 912 nM.

As to `CCOC(=O)c1nccn1Cc1c2cccc(-c3ccc(Cl)cc3Cl)c2nn1C` [I-14, 1-[7-(2,4-Dichloro-phenyl)-2-meth-yl-2H-indazol-3-yl-methyl]-1H-imidazole-2-carboxy-lic acid ethyl ester], the IC50 on GABAA α2β3γ2 was 832 nM; at GABAA α1β2γ2, 4790 nM. Taken in the same sequence, the figures for `Cn1nc2c(-c3ccc(Cl)cc3Cl)cccc2c1Cn1ccnn1` [I-16, 7-(2,4-Dichloro-phenyl)-2-meth-yl-3-[1,2,3]triazol-1-yl-methyl-2H-indazole] were 1200 nM and 5890 nM.

Regarding `Cn1nc2c(-c3ccc(Cl)cc3Cl)cccc2c1Cn1nccn1` [I-17, 7-(2,4-Dichloro-phenyl)-2-meth-yl-3-[1,2,3]triazol-2-yl-methyl-2H-indazole], the IC50 is 427 nM on GABAA α2β3γ2 and greater than 10000 nM at GABAA α1β2γ2. For the compound `COCn1ncnc1C(=O)c1c2cccc(-c3ccc(Cl)cc3Cl)c2nn1C` [I-19, [7-(2,4-Dichloro-phenyl)-2-meth-yl-2H-indazol-3-yl]-(2-meth-oxymethyl-2H-[1,2,4]tri-azol-3-yl)-meth-anone], the IC50 at GABAA α2β3γ2 was 1620 nM; on GABAA α1β2γ2 it was greater than 10000 nM. Taken in the same sequence, the figures for `Cn1nc2c(-c3ccc(Cl)cc3Cl)cccc2c1Cc1ncc[nH]1` [I-21, 7-(2,4-Dichloro-phenyl)-3-(1H-imi-dazol-2-ylmethyl)-2-meth-yl-2H-indazole] were 550 nM and 3550 nM. Taken in the same sequence, the figures for `Cn1nc2c(-c3ccc(Cl)cc3Cl)cccc2c1C(=O)c1nccn1CCO` [I-24, [7-(2,4-Dichloro-phenyl)-2-meth-yl-2H-indazol-3-yl]-[1-(2-hydroxy-ethyl)-1H-imi-dazol-2-yl]-methanone] were 214 nM and 3720 nM. The like results for `Cn1nc2c(-c3ccc(Cl)cc3Cl)cccc2c1Cc1cnc[nH]1` [I-25, 7-(2,4-Dichloro-phenyl)-3-(3H-imi-dazol-4-ylmethyl)-2-meth-yl-2H-indazole] were, in that order, 1150 nM and greater than 10000 nM. As for `CCOC(c1cnc[nH]1)c1c2cccc(-c3ccc(Cl)cc3Cl)c2nn1C` (stereo not drawn) [I-26, 7-(2,4-Dichloro-phenyl)-3-[eth-oxy-(3H-imidazol-4-yl)-meth-yl]-2-methyl-2H-inda-zole], the IC50 is 513 nM at GABAA α2β3γ2 and 6170 nM at GABAA α1β2γ2. Take `Cn1nc2c(-c3ccc(Cl)cc3Cl)cccc2c1C(O)c1cnc[nH]1` (stereo not drawn) [I-27, [7-(2,4-Dichloro-phenyl)-2-meth-yl-2H-indazol-3-yl]-(3H-imi-dazol-4-yl)-methanol]: the IC50 at GABAA α2β3γ2 was 550 nM; on GABAA α1β2γ2, 2340 nM.

Take `Cn1nc2c(-c3ccc(Cl)cc3Cl)cccc2c1C(O)c1ncc[nH]1` (stereo not drawn) [I-28, [7-(2,4-Dichloro-phenyl)-2-meth-yl-2H-indazol-3-yl]-(1H-imi-dazol-2-yl)-methanol]: the IC50 is 148 nM at GABAA α2β3γ2 and 575 nM at GABAA α1β2γ2. Taken in the same sequence, the figures for `Cn1nc2c(-c3ccc(Cl)cc3Cl)cccc2c1CC1=NCCN1` [I-29, 7-(2,4-Dichloro-phenyl)-3-(4,5-di-hydro-1H-imidazol-2-yl-methyl)-2-methyl-2H-inda-zole] were greater than 10000 nM and greater than 10000 nM. Taken in the same sequence, the figures for `Cn1nc2c(-c3ccc(Cl)cc3Cl)cccc2c1C(=O)c1ncc[nH]1` [I-30, [7-(2,4-Dichloro-phenyl)-2-meth-yl-2H-indazol-3-yl]-(1H-imi-dazol-2-yl)-meth-anone] were 166 nM and 4470 nM. Taken in the same sequence, the figures for `Cn1nnnc1C(O)c1c2cccc(-c3ccc(Cl)cc3Cl)c2nn1C` (stereo not drawn) [I-32, [7-(2,4-Dichloro-phenyl)-2-meth-yl-2H-indazol-3-yl]-(meth-yl-1H-tetrazol-5-yl)-meth-anol] were 398 nM and 5890 nM. As to `CN(C)S(=O)(=O)n1ccnc1C(O)c1c2cccc(-c3ccc(Cl)cc3Cl)c2nn1C` (stereo not drawn) [I-35, 2-{[7-(2,4-Dichloro-phenyl)-2-meth-yl-2H-indazol-3-yl]-hydroxy-methyl}-imidazole-1-sulfonicacid dimethyl-amide], on GABAA α1β2γ2, the IC50 was greater than 10000 nM. Consider `Cn1nc2c(-c3ccc(Cl)cc3Cl)cccc2c1-c1cnc[nH]1` [I-36, 7-(2,4-Dichloro-phenyl)-3-(3H-imi-dazol-4-yl)-2-meth-yl-2H-indazolehydrochloride], for which the IC50 at GABAA α2β3γ2 was 145 nM; on GABAA α1β2γ2, 7240 nM.

In the case of `Cn1nc2c(-c3ccc(Cl)cc3Cl)cccc2c1Cn1cccn1` [I-37, 7-(2,4-Dichloro-phenyl)-2-meth-yl-3-pyrazol-1-yl-methyl-2H-indazole], the IC50 is 380 nM at GABAA α2β3γ2 and 2750 nM at GABAA α1β2γ2. In the case of `Cn1nc2c(-c3ccc(Cl)cc3Cl)cccc2c1Cn1ccnc1` [I-40, 7-(2,4-Dichloro-phenyl)-3-imi-dazol-1-ylmethyl-2-meth-yl-2H-indazole], the IC50 was 1150 nM at GABAA α2β3γ2 and 4070 nM at GABAA α1β2γ2. Take `Cn1nc2c(-c3ccc(Cl)cc3Cl)cccc2c1Cn1cncn1` [I-42, 7-(2,4-Dichloro-phenyl)-2-meth-yl-3-[1,2,4]triazol-1-yl-methyl-2H-indazole]: the IC50 is 603 nM on GABAA α2β3γ2 and 5010 nM at GABAA α1β2γ2.

On to `Cn1nc2c(-c3ccc(Cl)cc3Cl)cccc2c1Cn1cnnn1` [I-43, 7-(2,4-Dichloro-phenyl)-2-meth-yl-3-tetrazol-1-yl-methyl-2H-indazole], for which the IC50 at GABAA α2β3γ2 was 832 nM; on GABAA α1β2γ2, 8910 nM. For `Cn1nc2c(-c3ccc(Cl)cc3Cl)cccc2c1N1C(=O)CCC1=O` [I-44, 1-[7-(2,4-Dichloro-phenyl)-2-meth-yl-2H-indazol-3-yl]-pyr-rolidine-2,5-dione], the IC50 was 3630 nM on GABAA α2β3γ2 and greater than 10000 nM on GABAA α1β2γ2. The like results for `Cn1nc2c(-c3ccc(Cl)cc3Cl)cccc2c1-c1ncc[nH]1` [I-45, 7-(2,4-Dichloro-phenyl)-3-(1H-imi-dazol-2-yl)-2-meth-yl-2H-indazole] were, in that order, 537 nM and 5620 nM. The like results for `Cn1nc2c(-c3ccc(Cl)cc3Cl)cccc2c1Cn1ncnn1` [I-49, 7-(2,4-Dichloro-phenyl)-2-meth-yl-3-tetrazol-2-yl-methyl-2H-indazole] were, in that order, 372 nM and 2240 nM. Taken in the same sequence, the figures for `Cn1nnc(-c2c3cccc(-c4ccc(Cl)cc4Cl)c3nn2C)n1` [I-52, 7-(2,4-Dichloro-phenyl)-2-meth-yl-3-(2-methyl-2H-tetra-zol-5-yl)-2H-indazole] were 141 nM and 3630 nM. `Cn1nc2c(-c3ccc(Cl)cc3Cl)cccc2c1-c1nnn[nH]1` [I-54, 7-(2,4-Dichloro-phenyl)-2-meth-yl-3-(1H-tetrazol-5-yl)-2H-inda-zole]: the IC50 is 692 nM at GABAA α2β3γ2 and 2950 nM at GABAA α1β2γ2. The melting point is the temperature, or range, at which the solid turns liquid. For the compound `CCOC(=O)Cc1ncn(Cc2c3cccc(-c4ccc(Cl)cc4Cl)c3nn2C)n1` [I-58, {1-[7-(2,4-Dichloro-phenyl)-2-meth-yl-2H-indazol-3-yl-methyl]-1H-[1,2,4]triazol-3-yl}-aceticacid ethyl ester], the melting point fell in the range of 80.8 to 84 °C. The same measure, in the same setting: the same measure for `CCOC(=O)Cc1ncnn1Cc1c2cccc(-c3ccc(Cl)cc3Cl)c2nn1C` [I-59, {2-[7-(2,4-Dichloro-phenyl)-2-meth-yl-2H-indazol-3-yl-methyl]-2H-[1,2,4]triazol-3-yl}-aceticacid ethyl ester]: 167.9 to 168.9 °C.
